Reference: paper PMC12715788, “Unraveling the Potential of Small Molecule Heparin Glycomimetics in Neuroregenerative Therapeutics” (Journal of the American Chemical Society, 2025)
Where “and” joins values, the source holds several entries; their conditions need not be identical. Equal values may be shown once. Read-outs that look alike come from different tables or passages of the source.

Experiments:
[1] = biological target: AT-III (Homo sapiens, UniProt P01008); experiment: BLI binding assay, sugars immobilized, protein as analyte
Chain of AT-III (P01008 33-464): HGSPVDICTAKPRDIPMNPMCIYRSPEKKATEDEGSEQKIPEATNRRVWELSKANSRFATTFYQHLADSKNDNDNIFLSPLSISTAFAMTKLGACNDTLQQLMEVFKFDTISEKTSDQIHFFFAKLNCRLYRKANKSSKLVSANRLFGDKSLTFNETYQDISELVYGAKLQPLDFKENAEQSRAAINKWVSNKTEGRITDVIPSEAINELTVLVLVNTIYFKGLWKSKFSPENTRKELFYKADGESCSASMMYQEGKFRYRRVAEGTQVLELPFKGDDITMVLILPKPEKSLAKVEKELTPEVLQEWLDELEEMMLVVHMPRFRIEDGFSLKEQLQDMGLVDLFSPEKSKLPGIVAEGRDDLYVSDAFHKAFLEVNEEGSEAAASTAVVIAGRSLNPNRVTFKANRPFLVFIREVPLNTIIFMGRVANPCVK
Description: (§1) We evaluated the binding affinity of native HS and synthetic HS glycomimetics (M1, D1, D2, D3, and T1) to these proteins using biolayer interferometry (BLI). The terminal amino groups of the sugars were immobilized onto the sensor surface using standard amine coupling chemistry, and binding assays were performed by introducing the proteins as analytes at varying concentrations (Figure A). The equilibrium dissociation constants (K D) were determined using the steady-state affinity curve fitting.

[2] = biological target: T1, FGF-1 (Homo sapiens, UniProt P05230); experiment: as above; settings: steady-state affinity curve fitting
T1 sequence (P05230 whole entry, species assumed): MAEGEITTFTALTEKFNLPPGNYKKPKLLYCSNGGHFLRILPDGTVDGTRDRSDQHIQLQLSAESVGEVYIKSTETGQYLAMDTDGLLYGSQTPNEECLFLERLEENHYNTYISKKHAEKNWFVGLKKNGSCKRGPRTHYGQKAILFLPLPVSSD
Description: as §1

[3] = biological target: T2, FGF-2 (Homo sapiens, UniProt P09038); experiment: as above; settings: steady-state affinity curve fitting
T2 sequence (P09038 134-288 limits assumed, species assumed): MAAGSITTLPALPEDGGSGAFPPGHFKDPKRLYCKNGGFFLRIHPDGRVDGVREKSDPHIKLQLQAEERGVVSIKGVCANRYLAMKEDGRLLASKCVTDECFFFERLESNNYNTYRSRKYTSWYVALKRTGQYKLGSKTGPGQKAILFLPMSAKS
Description: as §1

[4] = biological target: NGF (Homo sapiens, UniProt P01138); experiment: as above; settings: steady-state affinity curve fitting
Chain of NGF (P01138 122-241): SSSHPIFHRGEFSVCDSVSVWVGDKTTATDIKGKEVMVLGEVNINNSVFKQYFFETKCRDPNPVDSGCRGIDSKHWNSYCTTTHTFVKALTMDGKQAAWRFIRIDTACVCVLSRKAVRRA
Description: as §1

[5] = biological target: T2, FGF-2; experiment: BLI competition assay with immobilized native HS for FGF-2 binding
Source text: We next examined the functional relevance of the synthetic HS glycomimetics by testing their ability to compete with native HS for FGF-2 binding using competition assays. Although direct binding assays measure the intrinsic affinity of HS glycomimetics for FGF-2, they are limited in representing the complex, multimolecular environment of biological systems. In vivo, FGF-2 activity is tightly regulated by its interactions with GAGs, which are abundant on cell surfaces and in the ECM. These interactions stabilize FGF-2 and facilitate its dimerization with FGF receptors (FGFRs), a requirement for effective signal transduction. , Thus, therapeutic candidates targeting FGF-2 must be evaluated not only for direct binding but also for their ability to modulate or disrupt GAG-mediated interactions. Therefore, we performed competition assays in which native HS was immobilized on the sensor surface. Solutions containing a fixed concentration of FGF-2 (50 nM) were premixed with varying concentrations of HS glycomimetics, functioning as inhibitors in this context, (M1, D1, D2, D3, and T1) and also with the heparin hexasaccharide (H1) (GlcNS6S-GlcA-GlcNS3S6S-IdoA2S-GlcNS6S-GlcA), a well-studied HS glycomimetic in the literature, as a positive control (Figure B). […] The progressive decrease in signal intensity with increasing inhibitor concentration directly reflects competition with immobilized HS for FGF-2 binding.

[6] = biological target: T1, FGF-1; experiment: Far-UV CD spectroscopy and CD thermal denaturation; settings: CD thermal denaturation 10–90 °C; protein with sugar, 1:3 molar ratio
Source text: (§2) To select a lead compound, we complemented the affinity data with a series of studies evaluating the structural and functional implications of protein-HS glycomimetic interactions. We assessed the therapeutic safety profile of our HS glycomimetics. We also employed circular dichroism (CD) spectroscopy to assess secondary structural changes in protein conformation upon binding to native HS and HS glycomimetics. Since native HS alone produces only a minimal signal, it was ensured that its contribution would not interfere with protein-sugar complex spectra. Therefore, only the far-UV CD spectra of bare proteins and their sugar complexes were recorded. […] Upon incubation with sugars (1:3 molar ratio), significant spectral changes were observed, indicating sugar-induced alterations in secondary structure (Figure A).
(§3) We also evaluated the thermal stability of the proteins and their sugar complexes by CD-based thermal denaturation experiments. The spectra were recorded across a temperature range of 10–90 °C (Figure B). For all proteins except AT-III, the unfolding profiles were analyzed to determine the melting temperature (T m), representing the midpoint of the transition from the folded to the unfolded state, an indicator of structural integrity and resistance to thermal denaturation. The calculated values are compiled in Table .

[7] = biological target: T2, FGF-2; experiment: Far-UV CD spectroscopy and CD thermal denaturation; settings: CD thermal denaturation 10–90 °C; protein with sugar, 1:3 molar ratio
Source text: as §2, §3

[8] = tested on: citrated pooled rat plasma; experiment: Activated partial thromboplastin time (aPTT) assay
Source text: To complement these findings, we performed an activated partial thromboplastin time (aPTT) assay in citrated pooled rat plasma to assess the overall impact of the compounds on the intrinsic coagulation pathway. This global clotting assay measures the time required for fibrin formation and is sensitive to anticoagulant effects. Figure F,G compare the effects of UFH, heparan sulfate, Fondaparinux, and the synthetic glycomimetics when supplemented into citrated plasma. […] As expected, UFH produced a strong, concentration-dependent anticoagulant response, prolonging the mean clotting time to 271 s at the highest concentration tested, while heparan sulfate and Fondaparinux induced weaker but measurable effects (83 and 37 s, respectively). […] The results further confirm that selective sulfation patterns can decouple GF recognition from anticoagulant function, an essential prerequisite for their translational application in regenerative medicine. […] These interactions are in line with nonspecific electrostatic binding, a feature of highly sulfated oligosaccharides known to engage different proteins via charge-based, rather than specific, biologically targeted interactions. Thus, to avoid potential off-target effects associated with highly sulfated analogues, we selected the disaccharide D2 for subsequent biological experiments.

[9] = tested on: PC12 cells; experiment: NGF-mediated neurite outgrowth on sugar-coated substrates; assay type: cell-based, rat; settings: PC12 cells on coated surface, NGF 50 ng/mL; control 108 μm
Source text: We next examined the NGF-induced neuritogenic potential of the HS glycomimetics to determine whether they could potentiate neurotrophin-driven neuronal differentiation. To mimic the native role of HS proteoglycans in the ECM, which spatially sequester and present growth factors, we immobilized D2 and also native HS as a positive control onto culture substrates and evaluated its capacity to modulate neural maturation in two well-established neuronal cell models of different species origins, rat-derived PC12 cells and human-derived SH-SY5Y cells. These models represent distinct stages of neuronal differentiation and maturation, and the choice enabled us to compare cellular responses across species, thereby enhancing the translational relevance of our findings. PC12 cells respond to NGF by exiting the cell cycle and extending neurites, while SH-SY5Y cells serve as a model for later-stage maturation and neurite elongation. , […]
In PC12 cells, which serve as a classical model for NGF-induced neuronal differentiation, the presence of both immobilized D2 and native HS coatings led to notable morphological changes relative to control conditions (Figure C). […] Although images used for quantification were selected from well-dispersed regions, we also observed instances of cell clustering in both control and D2 groups (Figure S6.1, Supporting Information). […]

[10] = tested on: SH-SY5Y cells; experiment: NGF-mediated neuronal maturation on sugar-coated substrates, β-tubulin III fluorescence; assay type: cell-based, human; settings: SH-SY5Y cells on coated surface, NGF 50 ng/mL; control 1.43
Source text: We next examined the NGF-induced neuritogenic potential of the HS glycomimetics to determine whether they could potentiate neurotrophin-driven neuronal differentiation. To mimic the native role of HS proteoglycans in the ECM, which spatially sequester and present growth factors, we immobilized D2 and also native HS as a positive control onto culture substrates and evaluated its capacity to modulate neural maturation in two well-established neuronal cell models of different species origins, rat-derived PC12 cells and human-derived SH-SY5Y cells. These models represent distinct stages of neuronal differentiation and maturation, and the choice enabled us to compare cellular responses across species, thereby enhancing the translational relevance of our findings. PC12 cells respond to NGF by exiting the cell cycle and extending neurites, while SH-SY5Y cells serve as a model for later-stage maturation and neurite elongation. ,
In this context, the immobilization of D2 onto culture substrates provided a means to investigate how its presentation as an ECM-like component influences neurotrophic responses, particularly in combination with NGF. In both cell lines, D2 and native HS were applied to the substrate prior to seeding, thereby mimicking its natural role as a structural component of the ECM. […]

[11] = tested on: rat dissociated hippocampal neurons; experiment: Neurite morphometry in dissociated hippocampal neurons; assay type: cell-based; settings: 24 h treatment, 1 day in vitro, D2 1 μM, FGF-2 40 ng/mL, mean ± SEM
Description: In the pursuit of this, we used rat dissociated hippocampal neurons as an in vitro model system. We assessed the impact of HS glycomimetics on neuronal morphology, using immunofluorescence imaging and quantitative morphometric analysis, and on synaptic functionality through electrophysiological monitoring of spontaneous neuronal activity.
During the first day of differentiation in vitro (Table S7.1 in SI), neurons were treated for 24 h with either control medium, glycomimetic D2 (1 μM), FGF-2 (40 ng/mL) alone, or a combination of FGF-2 and D2 (40 ng/mL and 1 μM, respectively). After treatments, cultures were fixed and immuno-labeled with antibodies against the neuronal marker β-Tubulin III to study cell morphology. […] Quantitative analysis further corroborated these observations (Figure B–C).

- binding to AT-III [1]: no measurable binding
- Kd [2]: 0.78 µM
- Kd [3]: 0.67 µM
- Kd ([4]; read-out: KD for NGF, two-site binding model, first value): 2.6 µM
- Kd ([4]; read-out: KD for NGF, two-site binding model, second value): 468 µM
- IC50 ([5]; FGF-2 50 nM, fixed association time t = 240 s, read-out: Apparent IC50(t), competition with immobilized native HS for FGF-2 binding): 17.9 µM
- FGF-1 Sample Tm [6]: 45.0 °C and 45.0 ± 0.4 °C
- FGF-2 Sample Tm [7]: 52.4 °C and 52.4 ± 1.2 °C
- aPTT mean clotting time ([8]; citrated pooled rat plasma, highest concentration tested, control 22 s): 24 s
- anticoagulant activity ([8]; conclusion from aPTT and chromogenic assays): without any anticoagulant activity
Compound: CC(=O)N[C@H]1[C@@H](OCCN)O[C@H](COS(=O)(=O)O)[C@@H](O[C@@H]2O[C@@H](C(=O)O)[C@@H](OS(=O)(=O)O)[C@H](O)[C@H]2OS(=O)(=O)O)[C@@H]1O [D2, IdoA2S4S-GlcNAc6S]
- competition with immobilized native HS for FGF-2 binding, signal intensity ([5]; FGF-2 50 nM premixed with varying concentrations): dose-dependent reduction in signal intensity
- total neurite outgrowth per image (average sum of neurite length) [9]: 541 μm
- mean normalized β-tubulin III fluorescence intensity [10]: 2.15
- number of neurites emerging from the cell body ([11]; control 3.6 ± 0.22): 3.8 ± 0.23 neurites per neuron
- length of the longest neurite ([11]; control 38 ± 2): 43 ± 3 μm
